Experimental data: patent publication US20240180895A1, “USE OF KAPPA OPIOID RECEPTOR AGONISTS TO TREAT CARDIOVASCULAR DISEASE” (Board of Supervisors of Louisiana State University and …, priority 2021, published 2024)

How the values were obtained:
Type in all cases: in vivo, rat
[1] = system: conscious Sprague-Dawley rats; experiment: Acute cardiovascular and renal excretory studies with ICV or IV norBNI pretreatment (Example 4); conditions: for Urine osmolality / Urine potassium concentration [K+] / Urine sodium concentration [Na+]: total 90-min urine
Method: Male Sprague-Dawley rats (Envigo Labs, Indianapolis, IN) were individually housed, allowed tap water and standard rodent diet ad libitum, and kept under a 12-hour light-dark cycle. Rats used in these experiments weighed between 300 and 350 grams and were randomly assigned to experimental groups. All procedures were conducted in accordance with the National Institutes of Health guidelines for the care and use of animals and approved by the Louisiana State University Health Sciences Center Institutional Animal Care and Use Committee.
Aseptic technique was adhered to for all surgeries and detailed surgical methods were followed as previously described.^14 Briefly, 3-5 days before experimentation, rats requiring central ventricle access for administration of drug/vehicle into the brain were anesthetized with ketamine and xylazine and a stainless-steel cannula was stereotaxically implanted into the right lateral cerebral ventricle.^14
On the morning of the experiment, rats were anesthetized and maintained with inhaled 2% isoflurane, and polyethylene catheters were surgically placed into the left femoral artery, left femoral vein, and urinary bladder.^15.16 Following surgery, rats were placed in an elevated restrainer for recovery and collection of urine from an indwelling bladder catheter.^15 After completion of experimental protocols, rats were anesthetized with isoflurane and decapitated.
During stabilization of cardiovascular and renal excretory parameters, rats received an isotonic saline infusion (55 μl/min), which lasted throughout the duration of the experiment. To record mean arterial pressure (MAP) and heart rate (HR), arterial catheters were connected to a pressure transducer (MLT0670, ADInstruments, Sydney, Australia), which was connected to Powerlab 8/30 (ADInstruments) and visualized using LabChart software (v8.1.5; ADInstruments). After one hour of recovery from surgery, rats were pretreated with the KOR antagonist norBNI or isotonic saline vehicle through either an intracerebroventricular (ICV) catheter or intravenous (IV) catheter. […] Next, drug or vehicle (isotonic saline) was injected into the femoral vein and urine samples were collected every 10 minutes during a 90-minute experimental period. The following drug concentrations were used: nalfurafine 5 μg/kg, difelikefalin 10 μg/kg, norBNI 30 mg/kg (IV), norBNI 1 μg/5 μL (ICV). All groups are n=6. Urine sodium and potassium were measured using a flame photometer (model 943; Instrumentation Laboratories, Lexington, MA). Urine volume was measured gravimetrically, and urine osmolality was measured using a vapor pressure osmometer (model 5600; WESCOR, Logan, UT).
All results are expressed as mean±SEM. For determining statistically different changes at time points within a treatment group, means were compared to the control value using 2-way ANOVA with repeated measures and a post hoc Dunnett test following confirmation of a significant F value. For statistically different changes at individual time points between treatment groups, mean values were compared using 2-way ANOVA with repeated measures and a post hoc Sidak test following confirmation of a significant/value. For means between groups for total urine output, urine sodium concentration, urine potassium concentration, and urine osmolality, a Student/test was used. Statistical significance was characterized as P<0.05 and statistics were performed on Prism 7.05 software (GraphPad Software, Inc, San Diego, CA).

[2] = system: Sprague-Dawley rats; experiment: Prevention of diuretic resistance to once daily furosemide by difelikefalin, 24-hour urine (FIG. 14); conditions: difelikefalin 20 μg/kg IP added to furosemide 10 mg/kg once daily
Method: Male Sprague-Dawley rats were placed in individual metabolic cages in a room with 12-hour automatic light on/off control and allowed tap water and rodent chow ad libitum. Over the next two (2) days (control period), rats were administered vehicle (5% NaOH; 1 M PBS, IP) in the morning (9:00 am) and urine was then collected for 24-hours.

[3] = system: Sprague-Dawley rats placed on a low-salt diet; experiment: Reversal of furosemide diuretic resistance by difelikefalin in rats on a low sodium diet (FIG. 16); conditions: difelikefalin 20 μg/kg IP added on days 13-17, low sodium diet
Method: Male Sprague-Dawley rats were placed in individual metabolic cages in a room with 12-hour automatic light on/off control and allowed tap water. For these studies, rats were placed on a low-salt diet (0.1% NaCl) for one week prior to and throughout the experimental protocol. […] For the first two (2) days (control period), rats were administered vehicle (5% NaOH; 1 M PBS, IP) in the morning (9:00 am) and urine was then collected for 5-hours.

[4] = ICV norBNI (1 μg/5 μL) pretreatment
[5] = IV norBNI (30 mg/kg) pretreatment
[6] = difelikefalin 10 μg/kg IV, no pretreatment

Substance: Difelikefalin
- Effect on HR [1, 4]: No changes in HR
- Effect on MAP [1, 4]: no significant change in MAP
- Total urine output ([1]; ICV norBNI (1 μg/5 μL) pretreatment, difelikefalin 10 μg/kg or nalfurafine 5 μg/kg IV, 90 min): 5.49 ± 0.75 mL
- Urine osmolality [1, 4]: 280 ± 26.99 mmol/kg
- Urine potassium concentration [K+] [1, 4]: 13.63±3.05 μeq/mL
- Urine sodium concentration [Na+] [1, 4]: 47.92±8.30 μeq/mL
- Total urine output ([1]; ICV vehicle (5 μL) pretreatment, difelikefalin 10 μg/kg or nalfurafine 5 μg/kg IV, 90 min): 9.64 ± 0.52 mL
- Effect on HR ([1]; ICV vehicle pretreatment): No changes in HR
- MAP peak Δ ([1]; ICV vehicle pretreatment, peak at 60 min (difelikefalin), 50 min (nalfurafine)): −4 mmHg
- Urine osmolality ([1]; ICV vehicle pretreatment): 170.7 ± 12.04 mmol/kg
- Urine potassium concentration [K+] ([1]; ICV vehicle pretreatment): 8.16±1.81 μeq/mL
- Urine sodium concentration [Na+] ([1]; ICV vehicle pretreatment): 45.24±6.67 μeq/mL
- Effect on HR [1, 5]: slight but statistically significant increases in HR
- MAP peak Δ ([1]; IV norBNI (30 mg/kg) pretreatment, 80-minute peak for difelikefalin): −4.5 mmHg
- Total urine output ([1]; IV norBNI (30 mg/kg) pretreatment, difelikefalin 10 μg/kg or nalfurafine 5 μg/kg IV, 90 min): 4.44 ± 0.28 mL
- Urine osmolality [1, 5]: 515 ± 35.8 mmol/kg
- Urine potassium concentration [K+] [1, 5]: 27.78±5.35 μeq/mL
- Urine sodium concentration [Na+] [1, 5]: 140.4±10.7 μeq/mL
- Total urine output ([1]; IV vehicle (2 cc/kg) pretreatment, difelikefalin 10 μg/kg or nalfurafine 5 μg/kg IV, 90 min): 9.49 ± 0.30 mL
- Effect on HR ([1]; IV vehicle pretreatment): slight but statistically significant increases in HR
- MAP peak Δ ([1]; IV vehicle pretreatment, peak at 70 min (difelikefalin), 60 min (nalfurafine)): −11 mmHg
- Urine osmolality ([1]; IV vehicle pretreatment): 161.2 ± 9.98 mmol/kg
- Urine potassium concentration [K+] ([1]; IV vehicle pretreatment): 5.66±1.04 μeq/mL
- Urine sodium concentration [Na+] ([1]; IV vehicle pretreatment): 38.93±4.01 μeq/mL
- Duration of the increase in urine flow rate [1, 6]: 50 min
- Effect on HR [1, 6]: Neither IV saline nor difelikefalin altered HR
- Time of peak diuresis [1, 6]: 30 min
- Total urine output ([1]; difelikefalin 10 μg/kg IV, no pretreatment (FIG. 9B), 90-minute period, mean±SEM, n=6): 10.62 ± 0.47 mL
- Urine osmolality [1, 6]: 169.70 ± 13.89 mmol/kg
- Urine potassium concentration [K+] [1, 6]: 5.53±0.63 μeq/mL
- Urine sodium concentration [Na+] [1, 6]: 32.22±6.48 μeq/mL
- Effect on diuretic resistance to furosemide [2]: prevents the diuretic resistance
- Effect on established diuretic resistance to furosemide [3]: rescues the established diuretic resistance
